Laboratory results taken from patent publication US20180286508A1, “DETERMINATION OF FAVORABLE DATE(S) FOR THERAPEUTIC TREATMENT DELIVERY” (Mayo Foundation for Medical Education and Research, priority 2015, published 2018).
Values joined by “and” are separate entries in the source; they are usually repeats but may differ in a detail not shown here. Identical values can stand only once.

Tests used:
[1] = standard TMZ doses, 200 mg/m2 daily over 5 days, cycles every 28 days; cited from earlier work
[2] = test system: non proliferating peripheral blood lymphocytes; settings: therapeutical doses, in vitro; cited from earlier work
[3] = test system: patients with unresectable stage IV malignant melanoma; assay: Clinical trial of timed TMZ chemotherapy (timed on CRP oscillation) in stage IV melanoma patients; format: in vivo, human
Excerpt: In an example clinical trial described herein, the patient population included patients with unresectable stage IV malignant melanoma. Eligible patients had unresectable, histologically confirmed stage IV disease, age over 18 years, measurable disease as defined by the Response Evaluation Criteria in Solid Tumors (RECIST), Eastern Cooperative Oncology Group (ECOG) performance status (PS) of 0-2, and life expectancy ≥3 months. Both newly diagnosed, previously untreated patients, as well as patients who have had prior therapy for their metastatic disease were enrolled.
Treatment was initiated with temozolomide (TMZ) 150 mg/m^2 on days 1-5 on cycle 1 and the dose was increased to 200 mg/m^2 for all subsequent cycles if tolerated. Patients were treated every 4 weeks until progression, unacceptable toxicity or patient refusal. Prior to initiation of first chemotherapy cycle, eligible patients underwent peripheral blood testing for immunological biomarkers (immune variables) every 2-3 days for a period of two weeks. The blood samples were tested for a total of 52 variables; that is, 52 measurements of cytokine concentrations and cell counts in blood samples.
The time series of six CRP concentration measurements was fitted to a sine curve. The curve was then extrapolated for two periods and the next consecutive peaks of CRP concentration were predicted. Based on the periodicity of CRP oscillations, TMZ chemotherapy was initiated prior to the estimated time of the next CPR peak, or on day 14 post-registration if the peak could not be identified.
The purpose of the curve fitting analysis is to determine whether any of the measured immune variables change in a predictable fashion following a cyclical pattern (dynamic equilibrium of immunity and cancer). Therefore, the goal of the curve fitting analysis is to assess whether concentrations of plasma cytokines/chemokines and immune cells fluctuate, and if so, to determine whether these fluctuations follow a mathematically predictable cyclical pattern. To that end, the plasma levels for the 52 immune variables ([…] different cytokines/chemokines/growth factors and the percentage of 22 immune cell subsets) in serial blood samples collected every 2-3 days prior to initiation of TMZ therapy were measured in 10 patients with metastatic malignant melanoma. […] Technical reproducibility was assessed by the coefficient of variation among duplicates (average coefficient of variation was 5.13% for 1593 data points).

[4] = test system: CD8+ effector T-cells and dendritic cells (DCs); settings: therapeutical doses, in vitro; cited from earlier work
[5] = test system: patients with metastatic melanoma (stage IV); assay: Phase II clinical trial MC1076 of timed administration of TMZ; format: in vivo, human; settings: for number of patients with PFS >4 months: 17 patients
Excerpt: Eligible patients had unresectable, histologically confirmed stage IV disease, age over 18 years, measurable disease as defined by the Response Evaluation Criteria in Solid Tumors (RECIST), Eastern Cooperative Oncology Group (ECOG) performance status of 0-2, and life expectancy≥3 months (See Table 10). Both previously untreated patients and patients who have had prior therapy for their metastatic disease (excluding prior exposure to TMZ) were eligible. All patients provided signed informed written consent, and the study was approved by the Mayo Clinic Rochester Institutional Review Board. The TMZ dose was 150 mg/m2 on days 1-5 of cycle 1 and was increased to 200 mg/m2 on days 1-5 each month for all subsequent cycles if well tolerated. Patients were treated every 28 days until progression, unacceptable toxicity or patient refusal. Prior to initiation of first chemotherapy cycle, eligible patients underwent serial daily peripheral blood testing for 10 days of 69 immune biomarkers (42 cytokines, and 27 immune cell subtypes) per time point/patient. At the end of the sample collections, all data was jointly analyzed and a day for individualized TMZ delivery was calculated according to the proposed model (below). Patients received their therapy during the time, predicted by the model. All patients were followed for clinical outcomes.
Time-dependent profiles of blood concentration of IL-12p70, CD197/CD206, IL-1ra were built based on a series of pre-treatment measurements. The data was fitted to a sine curve and the extrapolated for a period of 10 days. Chemotherapy was initiated on the day when the extrapolated value of the combination of these immune parameters was at maximum.
The MC1076 study was designed to assess the anti-tumor activity of timed administration of TMZ. A two-stage phase II clinical trial design will be used to test the hypothesis that the 4 month PFS rate is at most 45% against the alternative hypothesis that the 4 month PFS rate is at least 65%. Progression-free survival was defined as the time from registration to documentation of disease progression or death without disease progression documented.
Analysis of infradian (multi-day) dynamics in systemic immunity of patients with metastatic melanoma. Based on data, both published and from our lab, we hypothesized that the anti-tumor systemic immune response in patients with cancer is not a static but a dynamic event. In order to study the global temporal behavior of systemic anti-tumor immunity, we conducted a phase II clinical trial (MC1076; NCT01328535). In this study, patients with metastatic melanoma underwent a period of immunological monitoring consisting of 10 daily PB collections (10 mL) over 12 days prior to initiation of therapy with TMZ. There was no blood collection on weekend days. At the end of the sample collection period, samples were batched analyzed (to minimize inter-assay variability for a given patient) for measurement of dynamic changes of plasma cytokines and immune cell subsets using established, standardized, and Good Laboratory Practice (GLP)-validated methodology in our laboratory.^35 Time-dependent profiles of immune variables (cytokines and immune cell subsets) were then analyzed and an optimal day for initiation of TMZ therapy was prospectively computed by the algorithm described below. […]

[6] = LMR <1 on the day of TMZ initiation
[7] = LMR >1 on the day of TMZ initiation

Cn1nnc2c(C(N)=O)ncn2c1=O [TMZ, temozolomide]
serum concentrations [1]: up to 50 μM
impairment of non proliferating peripheral blood lymphocytes [2]: did not impair
PFS ([3]; Table 4, one line per patient, 8 patients with metastatic cutaneous melanoma, TMZ 150 to 200 mg/m^2 days 1-5 every 4 weeks): 70 days and 68 days and 37 days and 916 days and 748 days and 132 days and 91 days and 77 days
PFS ([3]; Table 6, one line per patient, same 8 melanoma patients): 37 days and 91 days and 32 days and 77 days and 916 days and 841 days and 68 days and 70 days
average PFS ([3]; four patients with sum of ranks of IL12p70 and CD197/CD206 above 15): 68 days
average PFS ([3]; four patients with sum of ranks of IL12p70 and CD197/CD206 below 15): 466 days
PFS ([3]; two patients with disorganized (non-curve-fitting) anti-tumor immune responses): 71 days and 74 days
impairment of the function of CD8+ effector T-cells and dendritic cells [4]: did not impair
number of patients with PFS <4 months [5, 6]: 7
number of patients with PFS >4 months [5, 6]: 1
number of patients with PFS <4 months [5, 7]: 3
number of patients with PFS >4 months [5, 7]: 6
PFS ([5]; Table 11, one line per patient, 24 patients, time from registration to progression, CR = complete response): 644 days and 242 days and 184 days and 47 days and 83 days and 301 days and 136 days and 752 days and 102 days and 78 days and 39 days and 107 days and 72 days (2×) and 53 days and 48 days and 80 days and 73 days and 130 days and 77 days and 133 days and 198 days
